Legend:
[1] = tested on: Normal Mice; experiment: Hemoglobin increase in normal mice, oral QD, TIW, QW; type: in vivo, C57BL/6J mice
Description: This experiment evaluated the effects of different dosing frequencies of the test compound Comp-1 at the same weekly dose on hemoglobin and various routine hematological parameters in male C57BL/6J mice.
After acclimatization feeding, on Day 0, submandibular vein blood was collected from 92 male mice aged 6-8 weeks for routine hematological analysis. Based on the Day 0 Hb (hemoglobin) results, 80 mice were selected for use in this experiment and divided into groups as follows: Vehicle (QD, 5 mice), Comp-1 (4.5 mg/kg, QD, 5 mice), Comp-1 (10.5 mg/kg, TIW, 5 mice), Comp-1 (31.5 mg/kg, QW, 5 mice), Comp-1 (9 mg/kg, QD, 15 mice), Comp-1 (21 mg/kg, TIW, 15 mice), Comp-1 (63 mg/kg, QW, 15 mice), Comp-1 (15 mg/kg, QD, 5 mice), Comp-1 (35 mg/kg, TIW, 5 mice), and Comp-1 (105 mg/kg, QW, 5 mice). On Day 14 and Day 28, submandibular vein blood was collected for routine hematological analysis. Quantitative data results were analyzed statistically using one-way analysis of variance (ANOVA) between groups, followed by Dunnett's multiple comparison method. Two-tailed analysis was used for statistics, and the statistical significance level was set at P<0.05.

[2] = tested on: Normal Rats; experiment: Hemoglobin increase in normal rats, oral tiw vs qw for 4 weeks; type: in vivo, SD rats; parameters: Hemoglobin D0 / Hemoglobin D14: unit not given here; settings: for Hemoglobin D0 / Hemoglobin D7 / Hemoglobin D14 / Hemoglobin D21 / Hemoglobin D28: oral; for Hemoglobin D0: day 0; for Hemoglobin D7: day 7; for Hemoglobin D14: day 14; for Hemoglobin D21: day 21; for Hemoglobin D28: day 28
Method: A total of 70 male SD rats, approximately 7 weeks old, were acclimated to the experimental environment for 10 days before the start of the experiment. Throughout the experiment, animals were housed in cages (5 rats per cage) in a conventional animal room with 24-hour continuous central air conditioning, temperature set at 24° C., and a 12-hour light/dark cycle. All rats had free access to food (dry pelleted food) and purified drinking water. The animals were randomly divided into 8 groups: the vehicle tiw group and vehicle qw group each contained 5 rats; Comp-1 3 mpk tiw, 6 mpk tiw, 10 mpk tiw, 9 mpk qw, 18 mpk qw, and 30 mpk qw, each contained 10 rats (mpk=mg/kg). The vehicle was 1 M aqueous meglumine solution. Each rat received oral gavage of the vehicle or the corresponding weight of Comp-1 vehicle solution according to its body weight and group assignment (tiw, qw) for a total of 4 weeks. Blood samples were collected from each rat on days 0, 7, 14, 21, and 28 to measure hemoglobin values (HGB, Hb). After tail snip blood collection, hemoglobin values were measured and read using a hemoglobin detector (HemoCue Hb 201+, produced by Radiometer). Quantitative data results were analyzed statistically using one-way analysis of variance (ANOVA) between groups, followed by Dunnett's multiple comparison method. Two-tailed analysis was used for statistics, and the statistical significance level was set at P<0.05.

[3] = 4.5 mg/kg, QD, total weekly dose 31.5 mg/kg
[4] = 9.0 mg/kg, QD, total weekly dose 63.0 mg/kg
[5] = 10.5 mg/kg, TIW, total weekly dose 31.5 mg/kg
[6] = 15.0 mg/kg, QD, total weekly dose 105.0 mg/kg
[7] = 21.0 mg/kg, TIW, total weekly dose 63.0 mg/kg
[8] = 31.5 mg/kg, QW, total weekly dose 31.5 mg/kg
[9] = 35.0 mg/kg, TIW, total weekly dose 105.0 mg/kg
[10] = 63.0 mg/kg, QW, total weekly dose 63.0 mg/kg
[11] = 105.0 mg/kg, QW, total weekly dose 105.0 mg/kg

With `O=C(O)CNC(=O)C1=C(O)C2(CCCC2)n2c(ccc2-c2ccccc2)C1=O` [Comp-1, (6′-hydroxy-8′-oxo-3′-phenyl-8′H-spiro[cyclopentane-1,5′-indolizine]-7′-carbonyl)glycine] the “Hb Day 0” value [1, 3] was 15.2 ± 0.61 g/dL, the “Hb Day 14” value [1, 3] was 18.2 ± 0.52 g/dL and the “Hb Day 28” value [1, 3] was 19.7 ± 0.53 g/dL. For the same molecule, the “Hb Day 0” value [1, 4] was 15.3 ± 0.51 g/dL, the “Hb Day 14” value [1, 4] was 20.6 ± 0.44 g/dL and the “Hb Day 28” value [1, 4] was 23.1 ± 0.80 g/dL. The “Hb Day 0” value [1, 5] was 15.3 ± 0.66 g/dL, the “Hb Day 14” value [1, 5] was 17.9 ± 0.54 g/dL and the “Hb Day 28” value [1, 5] was 19.2 ± 0.22 g/dL. For the same molecule, the “Hb Day 0” value [1, 6] was 15.3 ± 0.48 g/dL, the “Hb Day 14” value [1, 6] was 20.1 ± 0.54 g/dL and the “Hb Day 28” value [1, 6] was 22.8 ± 0.29 g/dL. The “Hb Day 0” value [1, 7] was 15.3 ± 0.49 g/dL, the “Hb Day 14” value [1, 7] was 19.7 ± 0.77 g/dL and the “Hb Day 28” value [1, 7] was 22.0 ± 0.11 g/dL. For the same molecule, the “Hb Day 0” value [1, 8] was 15.3 ± 0.48 g/dL, the “Hb Day 14” value [1, 8] was 16.7 ± 0.40 g/dL and the “Hb Day 28” value [1, 8] was 17.2 ± 0.52 g/dL. For the same molecule, the “Hb Day 0” value [1, 9] was 15.3 ± 0.44 g/dL, the “Hb Day 14” value [1, 9] was 18.9 ± 0.11 g/dL and the “Hb Day 28” value [1, 9] was 22.4 ± 0.57 g/dL. The “Hb Day 0” value [1, 10] was 15.3 ± 0.51 g/dL, the “Hb Day 14” value [1, 10] was 17.4 ± 0.62 g/dL and the “Hb Day 28” value [1, 10] was 18.5 ± 0.74 g/dL. For the same molecule, the “Hb Day 0” value [1, 11] was 15.3 ± 0.50 g/dL, the “Hb Day 14” value [1, 11] was 19.0 ± 0.40 g/dL and the “Hb Day 28” value [1, 11] was 20.0 ± 0.48 g/dL. For the same molecule, the “mean hemoglobin values vs Vehicle control group” value ([1]; Day 14 and Day 28, all groups receiving Comp-1, P<0.001) was “significantly different”, the “Hemoglobin D0” value ([2]; 3 mg/kg, tiw) was 16.42 ± 0.74 and the “Hemoglobin D7” value ([2]; 3 mg/kg, tiw) was 18.32 ± 0.70. The “Hemoglobin D14” value ([2]; 3 mg/kg, tiw) was 19.06 ± 0.81, the “Hemoglobin D21” value ([2]; 3 mg/kg, tiw) was 18.09 ± 0.57 and the “Hemoglobin D28” value ([2]; 3 mg/kg, tiw) was 18.97 ± 0.56. The “Hemoglobin D0” value ([2]; 6 mg/kg, tiw) was 17.4 ± 1.07, the “Hemoglobin D7” value ([2]; 6 mg/kg, tiw) was 18.76 ± 0.76 and the “Hemoglobin D14” value ([2]; 6 mg/kg, tiw) was 20.15 ± 0.58. The “Hemoglobin D21” value ([2]; 6 mg/kg, tiw) was 19.49 ± 0.82, the “Hemoglobin D28” value ([2]; 6 mg/kg, tiw) was 21.26 ± 1.08 and the “Hemoglobin D0” value ([2]; 9 mg/kg, qw) was 16.96 ± 0.82. The “Hemoglobin D7” value ([2]; 9 mg/kg, qw) was 17.57 ± 1.07, the “Hemoglobin D14” value ([2]; 9 mg/kg, qw) was 17.77 ± 2.01 and the “Hemoglobin D21” value ([2]; 9 mg/kg, qw) was 17.73 ± 1.15. For the same molecule, the “Hemoglobin D28” value ([2]; 9 mg/kg, qw) was 19.09 ± 1.44, the “Hemoglobin D0” value ([2]; 10 mg/kg, tiw) was 17.74 ± 1.06 and the “Hemoglobin D7” value ([2]; 10 mg/kg, tiw) was 19.21 ± 0.71. For the same molecule, the “Hemoglobin D14” value ([2]; 10 mg/kg, tiw) was 21.83 ± 1.18, the “Hemoglobin D21” value ([2]; 10 mg/kg, tiw) was 22.12 ± 1.40 and the “Hemoglobin D28” value ([2]; 10 mg/kg, tiw) was 23.69 ± 1.31. For the same molecule, the “Hemoglobin D0” value ([2]; 18 mg/kg, qw) was 17.2 ± 1.00, the “Hemoglobin D7” value ([2]; 18 mg/kg, qw) was 17.95 ± 0.88 and the “Hemoglobin D14” value ([2]; 18 mg/kg, qw) was 18.57 ± 0.76. The “Hemoglobin D21” value ([2]; 18 mg/kg, qw, in g/dL) was 18.72 ± 0.92, the “Hemoglobin D28” value ([2]; 18 mg/kg, qw) was 18.99 ± 1.23 and the “Hemoglobin D0” value ([2]; 30 mg/kg, qw) was 17.13 ± 1.17. For the same molecule, the “Hemoglobin D7” value ([2]; 30 mg/kg, qw, in g/dL) was 19.33 ± 0.56, the “Hemoglobin D14” value ([2]; 30 mg/kg, qw) was 19.44 ± 1.07 and the “Hemoglobin D21” value ([2]; 30 mg/kg, qw, in g/dL) was 20.04 ± 0.93. The “Hemoglobin D28” value ([2]; 30 mg/kg, qw, in g/dL) was 20.62 ± 0.76 and the “hemoglobin levels compared with vehicle once weekly (qw)” value ([2]; day 28, the three once weekly (qw) groups) was “statistically significantly increased”.
